# Assays:
# [1] = biological target: T1, Bile acid receptor (Homo sapiens) (UniProt Q96RI1); assay: Agonist activity at human FXR LBD transfected in african green monkey CV1 cells assessed as maximum efficacy after overnight incubation by luciferase reporter gene assay relative to GW4064; format: functional, cell-based; conditions: CV-1
# T1 sequence (whole entry): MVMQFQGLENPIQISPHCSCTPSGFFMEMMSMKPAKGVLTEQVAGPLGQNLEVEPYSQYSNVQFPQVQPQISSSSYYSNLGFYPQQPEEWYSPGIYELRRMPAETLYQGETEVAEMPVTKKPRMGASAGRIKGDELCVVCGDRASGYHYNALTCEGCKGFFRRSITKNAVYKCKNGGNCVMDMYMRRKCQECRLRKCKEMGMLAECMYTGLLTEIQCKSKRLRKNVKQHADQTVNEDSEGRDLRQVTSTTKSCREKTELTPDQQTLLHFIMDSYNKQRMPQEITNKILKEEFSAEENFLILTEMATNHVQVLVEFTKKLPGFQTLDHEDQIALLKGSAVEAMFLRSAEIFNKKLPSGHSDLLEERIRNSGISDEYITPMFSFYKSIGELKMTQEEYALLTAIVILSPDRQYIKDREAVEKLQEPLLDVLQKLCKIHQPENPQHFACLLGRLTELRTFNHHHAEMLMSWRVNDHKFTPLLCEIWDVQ
# Bile acid receptor [2] = biological target: T2, Bile acid receptor (Homo sapiens, UniProt Q96RI1); assay: Agonist activity at human amino-terminal polyhistidine-tagged FXR alpha LBD (amino acids 237 to 472) assessed as cofactor peptide SRC-1 interaction with receptor ligand binding domain after 2 hrs by FRET assay
# T2 sequence (Q96RI1 whole entry): T1 sequence (whole entry)
# Bile acid receptor [3] = biological target: T2, Bile acid receptor; assay: Agonist activity at human FXR LBD transfected in african green monkey CV1 cells after overnight incubation by luciferase reporter gene assay; format: functional, cell-based, CV-1
# [4] = biological target: T1, Bile acid receptor (Homo sapiens); assay: Agonist activity at human amino-terminal polyhistidine-tagged FXR alpha LBD (amino acids 237 to 472) assessed as maximum efficacy measuring cofactor peptide SRC-1 interaction with receptor ligand binding domain after 2 hrs by FRET assay relative to GW4064
# Rattus norvegicus = assay: Dose normalized AUC in rat at 5 mg/kg, po; format: ADME, organism-based; parameters: dose 5 mg/kg, route oral; conditions: in vivo
# [5] = Terminal half life in rat at 1 mg/kg, iv; format: ADME, organism-based; parameters: dose 1 mg/kg, route intravenous; conditions: in vivo, read-out: beta t1/2
# [6] = Volume of distribution at steady state in rat at 1 mg/kg, iv; format: ADME, organism-based; parameters: dose 1 mg/kg, route intravenous; conditions: in vivo, read-out: Vdss
# [7] = Oral bioavailability in rat at 5 mg/kg; format: ADME, organism-based; conditions: in vivo
# [8] = Clearance in rat at 1 mg/kg, iv; format: ADME, organism-based; parameters: dose 1 mg/kg, route intravenous; conditions: in vivo
# [9] = Inhibition of Cytochrome P450; format: ADME
# [10] = Selectivity for human FXR over PPAR delta receptor
# [11] = Selectivity for human FXR over LXR beta receptor
# [12] = Selectivity for human FXR over PPAR gamma receptor
# [13] = Selectivity for human FXR over PPAR alpha receptor
# [14] = Selectivity for human FXR over LXR alpha receptor
# [15] = Selectivity for human FXR over PXR receptor
Emax [1] [%],EC50 (Bile acid receptor [2]) [nM],EC50 (Bile acid receptor [3]) [nM],Emax [4] [%],AUC/dose (Rattus norvegicus) [ng·kg·h/mL/mg],half-life [5] [h],Vd [6] [L/kg],bioavailability [7] [%],clearance [8] [mL/min/kg],IC50 [9] [nM],fold change (FC) [10],fold change (FC) [11],fold change (FC) [12],fold change (FC) [13],fold change (FC) [14],fold change (FC) [15],Compound
36,1200,1300,61,–,–,–,–,–,–,–,–,–,–,–,–,CC(C)c1onc(-c2c(Cl)cccc2Cl)c1COc1ccc(-c2nc3cccc(C(=O)O)c3[nH]2)cc1
59,750,490,75,–,–,–,–,–,–,–,–,–,–,–,–,CC(C)c1onc(-c2c(Cl)cccc2Cl)c1COc1ccc(-c2ccc3c(c2)CC(C(=O)O)C3)cc1 (stereo not given)
59,190,990,72,–,–,–,–,–,–,–,–,–,–,–,–,CC(C)c1onc(-c2c(Cl)cccc2Cl)c1COc1ccc(Sc2cccc3sc(C(=O)O)cc23)cc1
104,–,–,134,–,–,–,–,–,–,–,–,–,–,–,–,CC(C)c1onc(-c2c(Cl)cccc2Cl)c1COc1ccc(-c2ccc3c(C(=O)O)cccc3c2)cc1
69,210,140,96,16,1.17,0.5,3,30,–,–,–,–,–,–,–,CC(C)c1onc(-c2c(Cl)cccc2Cl)c1COc1ccc(-c2ccc3cc(C(=O)O)[nH]c3c2)cc1
90,51,130,93,43,1.02,1.7,20,78,–,–,–,–,–,–,–,CC(C)c1onc(-c2c(Cl)cccc2Cl)c1COc1ccc(-c2ccc3oc(C(=O)O)cc3c2)cc1
35,20,31,107,11,0.433,1.2,5.1,76,> 5000,> 100,> 100,> 100,> 100,> 100,> 100,CC(C)c1onc(-c2c(Cl)cccc2Cl)c1COc1ccc(-c2ccc3c(C(=O)O)c[nH]c3c2)cc1
42,1000,500,38,–,–,–,–,–,–,–,–,–,–,–,–,CC(C)c1onc(-c2c(Cl)cccc2Cl)c1COc1ccc(Cn2ccc3ccc(C(=O)O)cc32)cc1
102,–,–,105,130,2.83,3.4,–,32,–,–,–,–,–,–,–,CC(C)c1onc(-c2c(Cl)cccc2Cl)c1COc1ccc(-c2ccc3nc(C(=O)O)ccc3c2)cc1
82,670,1700,53,–,–,–,–,–,–,–,–,–,–,–,–,CC(C)c1onc(-c2c(Cl)cccc2Cl)c1COc1ccc(-c2ccc3sc(C(=O)O)cc3n2)cc1
91,250,530,77,–,–,–,–,–,–,–,–,–,–,–,–,CC(C)c1onc(-c2c(Cl)cccc2Cl)c1COc1ccc(-c2ccc3sc(C(=O)O)cc3c2)cc1
68,550,750,72,–,–,–,–,–,–,–,–,–,–,–,–,CC(C)c1onc(-c2c(Cl)cccc2Cl)c1COc1ccc(-c2ccc3c(c2)CCCC3C(=O)O)cc1 (stereo not given)
81,21,24,115,0,0.367,0.73,0,50,–,–,–,–,–,–,–,CC(C)c1onc(-c2c(Cl)cccc2Cl)c1COc1ccc(-c2ccc3c(C(=O)O)csc3c2)cc1
100,–,–,100,–,–,–,–,–,–,–,–,–,–,–,–,CC(C)c1onc(-c2c(Cl)cccc2Cl)c1COc1ccc(/C=C/c2cccc(C(=O)O)c2)c(Cl)c1
78,88,110,81,22,1.48,1.3,7.1,55,–,–,–,–,–,–,–,CC(C)c1onc(-c2c(Cl)cccc2Cl)c1COc1ccc(-c2ccc3[nH]c(C(=O)O)cc3c2)cc1

# Source: ChEMBL document CHEMBL1833944, “Conformationally constrained farnesoid X receptor (FXR) agonists: alternative replacements of the stilbene” (Bioorg Med Chem Lett, 2011)
